Results reported in US6218393A, “Anthranilic acid derivatives as multi drug resistance modulators” (priority 1997, dated 2001).

Experiments:
AR 1.0 cells [1] = experiment: Potentiation index with doxorubicin titration; format: cell-based, mouse; conditions: for Potentiation Index at RMA concentration 30 nM: Table C1, RMA 30 nM; for Potentiation Index at RMA concentration 50 nM: Table C1, RMA 50 nM; for Potentiation Index at RMA concentration 100 nM: Table C1, RMA 100 nM; for Potentiation Index at RMA concentration 10 nM: Table C1, RMA 10 nM
Protocol: The EMT6 mouse mammary carcinoma cell line and the MDR resistant subline AR 1.0 were cultured in RPMI 1640 medium containing 10% foetal calf serum and 2 mM glutamine at 37° C. in 5% CO2. Cells were passaged between 1 in 200 and 1 in 2000 in the case of the parental cell line and between 1 in 20 and 1 in 200 in the case of the MDR resistant subline, after trypsinisation (0.25% trypsin, 0.2 gl^-1, EDTA). […]
(b) Cells were cultured for four days with a titration of doxorubicin (0.263 nM-17.24 μM) in the presence of a fixed concentration of each compound. Proliferation was quantified as described by Skehen et al, loc cit. The IC50 (concentration required to reduce proliferation to 50% of the untreated controls) for doxorubicin alone and with each compound were derived and used to calculate the potentiation index (PI): [formula]

AR 1.0 cells [2] = experiment: Drug accumulation assay: daunorubicin accumulation in AR 1.0 cells; format: cell-based; conditions: Mus musculus, 100% = accumulation with verapamil 100 μM, 1 hr, 37° C.
Protocol: The EMT6 mouse mammary carcinoma cell line and the MDR resistant subline AR 1.0 were cultured in RPMI 1640 medium containing 10% foetal calf serum and 2 mM glutamine at 37° C. in 5% CO2. Cells were passaged between 1 in 200 and 1 in 2000 in the case of the parental cell line and between 1 in 20 and 1 in 200 in the case of the MDR resistant subline, after trypsinisation (0.25% trypsin, 0.2 gl^-1, EDTA).
AR 1.0 cells were seeded 48 hours prior to assay into 96 well opaque culture plates (Canberra Packard).

COc1ccc(CN(C)Cc2ccc(NC(=O)c3ccccc3NC(=O)c3cnc4ccccc4c3)cc2)cc1OC(C)C [compound 9652, Quinoline-3-carboxylic acid [2-(4-{[(3-isopropoxy-4-methoxy-benzyl)-methyl-amino]-methyl}-phenylcarbamoyl)-phenyl]-amide]
Potentiation Index at RMA concentration 30 nM (AR 1.0 cells [1]): 1.2
Potentiation Index at RMA concentration 50 nM (AR 1.0 cells [1]): 1.8
Potentiation Index at RMA concentration 100 nM (AR 1.0 cells [1]): 7.6
IC50 (AR 1.0 cells [2]): 64 nM

COc1cc2c(cc1OC)CN(CCc1ccc(NC(=O)c3cscc3NC(=O)c3cnc4ccccc4c3)cc1)CC2 [compound 9616, Quinoline-3-carboxylic acid (4-{4-[2-(6,7-dimethoxy-3,4-dihydro-1H-isoquinolin-2-yl)-ethyl]-phenylcarbamoyl}-thiophen-3-yl)-amide]
Potentiation Index at RMA concentration 10 nM (AR 1.0 cells [1]): 13
Potentiation Index at RMA concentration 30 nM (AR 1.0 cells [1]): 142
Potentiation Index at RMA concentration 50 nM (AR 1.0 cells [1]): 143
Potentiation Index at RMA concentration 100 nM (AR 1.0 cells [1]): 185
IC50 (AR 1.0 cells [2]): 113 nM

CN(CCc1ccc(NC(=O)c2ccccc2NC(=O)c2cnc3ccccc3c2)cc1)Cc1ccc2c(c1)OCCO2 [compound 9645, Quinoline-3-carboxylic acid [2-(4-{2-[(2,3-dihydro-benzo [1,4]dioxin-6-ylmethyl)-methyl-amino]-ethyl}-phenylcarbamoyl)-phenyl]-amide]
Potentiation Index at RMA concentration 10 nM (AR 1.0 cells [1]): 1.0
Potentiation Index at RMA concentration 30 nM (AR 1.0 cells [1]): 1.3
Potentiation Index at RMA concentration 50 nM (AR 1.0 cells [1]): 2.1
Potentiation Index at RMA concentration 100 nM (AR 1.0 cells [1]): 7.2
IC50 (AR 1.0 cells [2]): 179 nM

COc1cc2c(cc1OC)CN(CCSc1ccc(NC(=O)c3ccccc3NC(=O)c3cnc4ccccc4c3)cc1)CC2 [compound 9621, Quinoline-3-carboxylic acid (2-{4-[2-(6,7-dimethoxy-3 ,4-dihydro-1H-isoquinolin-2-yl)-ethylsulfanyl]-phenylcarbamoyl}-phenyl)-amide]
Potentiation Index at RMA concentration 10 nM (AR 1.0 cells [1]): 1.0
Potentiation Index at RMA concentration 20 nM (AR 1.0 cells [1]; Table C1, RMA 20 nM): 1.3
Potentiation Index at RMA concentration 30 nM (AR 1.0 cells [1]): 1.6
Potentiation Index at RMA concentration 50 nM (AR 1.0 cells [1]): 4.4
Potentiation Index at RMA concentration 100 nM (AR 1.0 cells [1]): 25
IC50 (AR 1.0 cells [2]): 453 nM

CCN(CCc1ccc(NC(=O)c2ccccc2NC(=O)c2cnc3ccccc3c2)cc1)Cc1ccc(OC)c(OC)c1 [compound 9636]
Potentiation Index at RMA concentration 10 nM (AR 1.0 cells [1]): 2.6
Potentiation Index at RMA concentration 30 nM (AR 1.0 cells [1]): 22
Potentiation Index at RMA concentration 50 nM (AR 1.0 cells [1]): 46
Potentiation Index at RMA concentration 100 nM (AR 1.0 cells [1]): 131
IC50 (AR 1.0 cells [2]): 184 nM

COc1cc2c(cc1OC)CN(CCCc1cccc(NC(=O)c3ccccc3NC(=O)c3cnc4ccccc4c3)c1)CC2 [compound 9660, Quinoline-3-carboxylic acid (2-{3-[3-(6,7-dimethoxy-31 4-dihydro-1H-isoquinolin-2-yi)-propyl]-phenyicarbamoyi}-phenyi)-atnide]
Potentiation Index at RMA concentration 30 nM (AR 1.0 cells [1]): 1.1
Potentiation Index at RMA concentration 50 nM (AR 1.0 cells [1]): 1.2
Potentiation Index at RMA concentration 100 nM (AR 1.0 cells [1]): 1.4
IC50 (AR 1.0 cells [2]): 6420 nM

COc1cc2c(cc1OC)CN(CCc1ccc(NC(=O)c3cscc3NC(=O)c3ccc(C)nc3)cc1)CC2 [compound 9617, N-(4-{4-[2-(6,7-Dimethoxy-3,4-dihydro-1H isoquinolin-2-yl)-ethyl]-phenylcarbamoyl}-thiophen-3-yl)-6-methyl-nicotinamide]
Potentiation Index at RMA concentration 10 nM (AR 1.0 cells [1]): 1.5
Potentiation Index at RMA concentration 30 nM (AR 1.0 cells [1]): 4
Potentiation Index at RMA concentration 50 nM (AR 1.0 cells [1]): 15
Potentiation Index at RMA concentration 100 nM (AR 1.0 cells [1]): 81
IC50 (AR 1.0 cells [2]): 203 nM

CN(CCc1ccc(NC(=O)c2ccccc2NC(=O)c2cnc3ccccc3c2)cc1)Cc1ccc(F)c(F)c1 [compound 9643, Quinoline-3-carboxylic acid [2-(4-{2-[(3,4-difluoro-benzyl)-methyl-amino]-ethyl}-phenylcarbamoyl)-phenyl]-amide]
Potentiation Index at RMA concentration 10 nM (AR 1.0 cells [1]): 1.0
Potentiation Index at RMA concentration 30 nM (AR 1.0 cells [1]): 1.5
Potentiation Index at RMA concentration 50 nM (AR 1.0 cells [1]): 2.4
Potentiation Index at RMA concentration 100 nM (AR 1.0 cells [1]): 6.7
IC50 (AR 1.0 cells [2]): 425 nM

Cc1ccc(CN(C)CCc2ccc(NC(=O)c3ccccc3NC(=O)c3cnc4ccccc4c3)cc2)cc1C [compound 9631, Quinoline-3-carboxylic acid [2-(4-{2-[(3,4-dimethyl-benzyl)-methyl-amino]-ethyl}-phenylcarbatnoyl)-phenyl]-amide]
Potentiation Index at RMA concentration 10 nM (AR 1.0 cells [1]): 1
Potentiation Index at RMA concentration 30 nM (AR 1.0 cells [1]): 9
Potentiation Index at RMA concentration 50 nM (AR 1.0 cells [1]): 20
Potentiation Index at RMA concentration 100 nM (AR 1.0 cells [1]): 67
IC50 (AR 1.0 cells [2]): 669 nM

COc1cc2c(cc1OC)CN(CCc1ccc(NC(=O)c3cccnc3NC(=O)c3cnc4ccccc4n3)cc1)CC2 [compound 9600, Quinoxaline-2-carboxylic acid (3-{4-[2-(6,7-dimethoxy-3,4-dihydro-1H-isoquinolin-2-yl)-ethyl]-phenylcarbamoyl}-pyridin-2-yl)-amide]
Potentiation Index at RMA concentration 50 nM (AR 1.0 cells [1]): 1.98
Potentiation Index at RMA concentration 100 nM (AR 1.0 cells [1]): 2.55
IC50 (AR 1.0 cells [2]): 199 nM

COc1cc2c(cc1OC)CN(CCNC(=O)c1ccccc1NC(=O)c1cnc3ccccc3c1)CC2 [compound 9397, Quinoline-3-carboxylic acid {2-[2-(6,7 dimethoxy-3,4-dihydro-1H-isoquinolin-2-yl)-ethylcarbamoyl]-phenyl}-amide]
IC50 (AR 1.0 cells [2]): 10000 nM

COc1cc2c(cc1OC)CN(CCc1ccc(NC(=O)c3ccccc3NC(=O)c3ccccc3C(F)(F)F)cc1)CC2 [compound 9523, 2-(2-Trifluoromethyl-benzoylamino)-N-{4-[2-(6,7-dimethoxy-3,4-dihydro-1H-isoquinolin-2-yl)-ethyl]-phenyl}-benzamide]
IC50 (AR 1.0 cells [2]): 1600 nM

COc1cc2c(cc1OC)CN(CCNC(=O)c1ccccc1NC(=O)c1ccncc1)CC2 [compound 9384, N-{2-[2-(6,7-Dimethoxy-3,4-dihydro-1H-isoquinolin-2-yl)-ethylcarbamoyl]-phenyl}-isonicotinamide]
IC50 (AR 1.0 cells [2]): > 10000 nM

COc1cc2c(cc1OC)CN(CCc1ccc(NC(=O)c3sc4nccnc4c3NC(=O)c3cnc4ccccc4c3)cc1)CC2 [compound 9666, Quinoline-3-carboxylic acid (6-{4-[2-(6,7-dimethoxy-3,4-dihydro-1H-isoquinolin-2-yl)-ethyl]-phenylcarbamoyl}-thieno[2,3-b]pyrazin-7-yl)-amide]
IC50 (AR 1.0 cells [2]): 8670 nM

COc1cc2c(cc1OC)CN(CCc1ccc(NC(=O)c3ccccc3NC(=O)c3cnc4ccccc4c3O)cc1)CC2 [compound 9606, 4-Hydroxy-quinoline-3-carboxylic acid (2-{4-[2-(6,7-dimethoxy-3,4-dihydro-1H-isoquinolin-2-yl)-ethyl]-phenylcarbamoyl}-phenyl)-amide]
IC50 (AR 1.0 cells [2]): > 10000 nM
